Results: article PMC3612826, “Structural-Functional Analysis of 2,1,3-Benzoxadiazoles and Their N-oxides As HIV-1 Integrase Inhibitors” (Acta Naturae, 2013)

How the values were obtained:
[1] = biological target: recombinant HIV-1 IN (Human immunodeficiency virus type 1 group M subtype B, UniProt P12497); experiment: biochemical; format: biochemical
[2] = biological target: wild-type HIV-1 IN (Human immunodeficiency virus type 1 group M subtype B, UniProt P12497); experiment: biochemical; format: biochemical

Structure (SMILES) | IC50 [1] [µM] | Inhibitory potential, 3'-processing [1] | IC50 [2] [µM] | Inhibitory potential, strand transfer [2]
[O-][n+]1onc2ccccc21 [Compound 1, unsubstituted BFX] | > 1000 | exhibited no inhibitory potential | > 1000 | exhibited no inhibitory potential
O=[N+]([O-])c1cc([N+](=O)[O-])c2no[n+]([O-])c2c1-[n+]1ccccc1 [Compound 24] | 75 ± 15 | – | 80 ± 20 | –
